The values below come from patent US10414811B2, “Protease-resistant lipidated GLP-1 analogs” (MEDIMMUNE LIMITED, priority 2015, dated 2019).

SMILES strings stand for the structures. Read-outs that look alike come from different tables or passages of the source. Numbered stars: 1 amine (or outer) side, 2 acyl side, 3 side chain; on linkers, the order of the positions; unused ones are H or OH. Square brackets hold non-standard residues; d marks the D form. Side chains are listed from the residue outwards. Peptide text beside a SMILES is read from it. * marks the point of attachment. γGlu = O=C(O)[C@H](CCC(=O)[*:2])N[*:1]; Palmitoyl = CCCCCCCCCCCCCCCC(=O)*; αMeF = C[C@](N)(Cc1ccccc1)C(=O)O; αMeK = C[C@](N)(CCCCN)C(=O)O; Lauroyl = CCCCCCCCCCCC(=O)*; αMeS = C[C@](N)(CO)C(=O)O; AEEA = NCCOCCOCC(=O)O; Aib = CC(C)(N)C(=O)O

Assay type in all cases: cell-based
The target of test [1] is T1, human glucagon receptor (GCGR) (Homo sapiens, UniProt P47871).
T1 construct: expressed in transfected cells
T1 sequence (P47871 26-477): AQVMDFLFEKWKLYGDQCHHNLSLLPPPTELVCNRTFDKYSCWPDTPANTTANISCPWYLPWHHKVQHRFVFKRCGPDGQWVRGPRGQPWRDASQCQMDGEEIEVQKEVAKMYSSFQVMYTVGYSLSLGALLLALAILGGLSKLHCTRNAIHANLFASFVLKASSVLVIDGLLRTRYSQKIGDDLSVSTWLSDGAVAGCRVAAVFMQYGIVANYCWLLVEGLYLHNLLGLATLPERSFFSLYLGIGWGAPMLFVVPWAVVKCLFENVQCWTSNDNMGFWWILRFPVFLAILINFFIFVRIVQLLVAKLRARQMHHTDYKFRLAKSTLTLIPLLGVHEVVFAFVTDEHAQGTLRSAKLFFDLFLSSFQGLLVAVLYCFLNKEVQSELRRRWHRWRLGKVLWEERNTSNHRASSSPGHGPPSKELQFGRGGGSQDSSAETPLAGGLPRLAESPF
Briefly: cAMP assay, human GCGR cells. The procedure, abridged: (§1)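 Peptide-stimulated cAMP measured by two-step HTRF after a 30 min room-temperature incubation with receptor-expressing cells (hGLP-1R, hGIPR at 1×10^5 cells/ml; hGCGR at 2×10^5 cells/ml). Duplicate dilutions; EC50 from 4-parameter logistic fit of % Delta F.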

Test [2] addresses T2, human glucose-dependent insulinotropic peptide receptor (GIPR) (Homo sapiens, UniProt P48546).
T2 construct: expressed in transfected cells
T2 sequence (P48546 22-466): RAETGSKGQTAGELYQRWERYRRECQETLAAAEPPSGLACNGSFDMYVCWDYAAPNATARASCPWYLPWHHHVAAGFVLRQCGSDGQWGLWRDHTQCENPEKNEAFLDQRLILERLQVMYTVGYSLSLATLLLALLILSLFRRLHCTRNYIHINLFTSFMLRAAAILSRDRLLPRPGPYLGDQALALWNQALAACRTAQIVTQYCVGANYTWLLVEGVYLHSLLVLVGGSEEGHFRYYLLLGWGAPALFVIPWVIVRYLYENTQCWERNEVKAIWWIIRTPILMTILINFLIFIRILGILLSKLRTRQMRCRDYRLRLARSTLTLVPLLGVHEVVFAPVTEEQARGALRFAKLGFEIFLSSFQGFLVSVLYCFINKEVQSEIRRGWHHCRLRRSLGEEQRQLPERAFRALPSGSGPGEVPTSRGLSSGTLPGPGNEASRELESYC
The test is described as follows: cAMP assay, human GIPR cells. Put shortly: as §1

For test [3], the target named is T3, human GLP-1 receptor (GLP-1R) (Homo sapiens, UniProt P43220).
T3 construct: expressed in transfected cells
T3 sequence (P43220 24-463): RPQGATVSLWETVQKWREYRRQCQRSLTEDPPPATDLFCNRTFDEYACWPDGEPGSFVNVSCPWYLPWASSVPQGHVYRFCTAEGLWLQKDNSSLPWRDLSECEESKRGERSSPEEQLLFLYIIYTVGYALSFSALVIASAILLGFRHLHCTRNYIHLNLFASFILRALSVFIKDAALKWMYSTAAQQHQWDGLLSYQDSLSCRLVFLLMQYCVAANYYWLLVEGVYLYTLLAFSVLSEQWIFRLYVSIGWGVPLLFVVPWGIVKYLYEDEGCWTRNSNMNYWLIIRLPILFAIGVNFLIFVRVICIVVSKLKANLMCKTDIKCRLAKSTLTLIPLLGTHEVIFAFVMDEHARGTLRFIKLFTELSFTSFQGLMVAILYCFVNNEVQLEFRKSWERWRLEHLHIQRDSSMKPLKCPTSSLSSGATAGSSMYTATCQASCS
The test is described as follows: cAMP assay, human GLP-1R cells. The procedure, abridged: as §1

Where [4] appears, read: tris-lipidated peptides, second replicate, read-out: Primary assay EC50 Gluc-R (n2).
Where [5] appears, read: tris-lipidated peptides, mean of n1 and n2, read-out: Primary assay EC50 Mean pM GLP-1R.
The mark [6] stands for this setting: tris-lipidated peptides, replicate n1, read-out: Primary assay EC50 GLP-1R n1.
Where [7] appears, read: tris-lipidated peptides, replicate n2, read-out: Primary assay EC50 GLP-1R n2.
Setting [8] is: tris-lipidated peptides, second replicate, read-out: Primary assay EC50 GIP-R (n2).
Where [9] appears, read: cAMP assay, first determination (n1), read-out: Primary assay EC50 Gluc-R (n1).
Where [10] appears, read: cAMP assay, second determination (n2), read-out: Primary assay EC50 Gluc-R (n2).
[11] abbreviates: cAMP assay, first determination (n1), read-out: Primary assay EC50 GIP-R (n1).
Where [12] appears, read: cAMP assay, second determination (n2), read-out: Primary assay EC50 GIP-R (n2).
Where [13] appears, read: cAMP assay, first determination (n1), read-out: Primary assay EC50 GLP-1R n1.
The mark [14] stands for this setting: cAMP assay, second determination (n2), read-out: Primary assay EC50 GLP-1R n2.
[15] abbreviates: mean of n1 and n2, read-out: Mean pM GLP-1R.

Take `CCCCCCCCCCCC(=O)N[C@@H](CCC(=O)NCCOCCOCC(=O)NCCOCCOCC(=O)NCCCC[C@H](NC(=O)[C@H](CC(=O)O)NC(=O)[C@H](CO)NC(=O)[C@@H](NC(=O)[C@](C)(Cc1ccccc1)NC(=O)[C@H](CO)NC(=O)CNC(=O)[C@H](CCC(=O)O)NC(=O)C(C)(C)NC(=O)[C@@H](N)Cc1c[nH]cn1)[C@@H](C)O)C(=O)N[C@@H](CO)C(=O)N[C@@H](CO)C(=O)N[C@@H](Cc1ccc(O)cc1)C(=O)N[C@@H](CC(C)C)C(=O)N[C@@H](CCC(=O)O)C(=O)NCC(=O)N[C@@H](CCC(=O)O)C(=O)N[C@@H](C)C(=O)N[C@@H](C)C(=O)N[C@@](C)(CCCCN)C(=O)N[C@@H](CCCCNC(=O)COCCOCCNC(=O)COCCOCCNC(=O)CC[C@H](NC(=O)CCCCCCCCCCC)C(=O)O)C(=O)N[C@@H](Cc1ccccc1)C(=O)N[C@H](C(=O)N[C@@H](CCCCNC(=O)COCCOCCNC(=O)COCCOCCNC(=O)CC[C@H](NC(=O)CCCCCCCCCCC)C(=O)O)C(=O)N[C@@H](Cc1ccccc1)C(=O)N[C@H](C(=O)N[C@H](C(=O)N[C@@H](CCC(=O)O)C(=O)NCC(=O)NCC(N)=O)C(C)C)C(C)C)[C@@H](C)CC)C(=O)O` [compound 442] (H-H[Aib]EGS[αMeF]TSDK([AEEA-AEEA-γGlu-Lauroyl])SSYLEGEAA[αMeK]K([AEEA-AEEA-γGlu-Lauroyl])FIK([AEEA-AEEA-γGlu-Lauroyl])FVVEGG-NH2; N-terminus assumed): the EC50 in test [1] (setting [4]) came out at 19.7 nM; in test [2] (tris-lipidated peptides, first replicate, read-out: Primary assay EC50 GIP-R (n1)), 19.7 nM; in test [3] (setting [5]) it was 82 pM; in test [3] (setting [6]) it was 60.9 pM; in test [3] (setting [7]) it was 103 pM.

Turning to `CCCCCCCCCCCC(=O)N[C@@H](CCC(=O)NCCOCCOCC(=O)NCCOCCOCC(=O)NCCCC[C@H](NC(=O)[C@H](C)NC(=O)[C@@H](NC(=O)[C@H](Cc1ccccc1)NC(=O)[C@H](CCCCNC(=O)COCCOCCNC(=O)COCCOCCNC(=O)CC[C@H](NC(=O)CCCCCCCCCCC)C(=O)O)NC(=O)[C@](C)(CCCCN)NC(=O)[C@H](C)NC(=O)[C@H](C)NC(=O)[C@H](CCC(=O)O)NC(=O)CNC(=O)[C@H](CCC(=O)O)NC(=O)[C@H](CCCCNC(=O)COCCOCCNC(=O)COCCOCCNC(=O)CC[C@H](NC(=O)CCCCCCCCCCC)C(=O)O)NC(=O)[C@H](Cc1ccc(O)cc1)NC(=O)[C@H](CO)NC(=O)[C@](C)(CO)NC(=O)[C@@H](NC(=O)[C@H](CC(=O)O)NC(=O)[C@H](CO)NC(=O)[C@@H](NC(=O)[C@](C)(Cc1ccccc1)NC(=O)[C@H](CO)NC(=O)CNC(=O)[C@H](CCC(=O)O)NC(=O)C(C)(C)NC(=O)[C@@H](N)Cc1c[nH]cn1)[C@@H](C)O)C(C)C)[C@@H](C)CC)C(=O)N[C@H](C(=O)N[C@H](C(=O)N[C@@H](CCC(=O)O)C(=O)NCC(=O)NCC(N)=O)C(C)C)C(C)C)C(=O)O` [compound 470] (H-H[Aib]EGS[αMeF]TSDV[αMeS]SYK([AEEA-AEEA-γGlu-Lauroyl])EGEAA[αMeK]K([AEEA-AEEA-γGlu-Lauroyl])FIAK([AEEA-AEEA-γGlu-Lauroyl])VVEGG-NH2; N-terminus assumed), the EC50 in test [1] (setting [4]) was determined as 20 nM; in test [2] (setting [8]) it was 20 nM; in test [3] (setting [5]), 31.3 pM; in test [3] (setting [6]) it was 26 pM; in test [3] (setting [7]), 36.5 pM.

Consider `CCCCCCCCCCCC(=O)N[C@@H](CCC(=O)NCCOCCOCC(=O)NCCOCCOCC(=O)NCCCC[C@H](NC(=O)[C@H](CCC(=O)O)NC(=O)CNC(=O)[C@H](CCC(=O)O)NC(=O)[C@H](CC(C)C)NC(=O)[C@H](Cc1ccc(O)cc1)NC(=O)[C@H](CO)NC(=O)[C@H](CO)NC(=O)[C@H](CCCCNC(=O)COCCOCCNC(=O)COCCOCCNC(=O)CC[C@H](NC(=O)CCCCCCCCCCC)C(=O)O)NC(=O)[C@H](CC(=O)O)NC(=O)[C@H](CO)NC(=O)[C@@H](NC(=O)[C@](C)(Cc1ccccc1)NC(=O)[C@H](CO)NC(=O)CNC(=O)[C@H](CCC(=O)O)NC(=O)C(C)(C)NC(=O)[C@@H](N)Cc1c[nH]cn1)[C@@H](C)O)C(=O)N[C@@H](C)C(=O)N[C@@](C)(CCCCN)C(=O)N[C@@H](CCC(=O)O)C(=O)N[C@@H](Cc1ccccc1)C(=O)N[C@H](C(=O)N[C@@H](CCCCNC(=O)COCCOCCNC(=O)COCCOCCNC(=O)CC[C@H](NC(=O)CCCCCCCCCCC)C(=O)O)C(=O)N[C@@H](Cc1ccccc1)C(=O)N[C@H](C(=O)N[C@H](C(=O)N[C@@H](CCC(=O)O)C(=O)NCC(=O)NCC(N)=O)C(C)C)C(C)C)[C@@H](C)CC)C(=O)O` [compound 441] (H-H[Aib]EGS[αMeF]TSDK([AEEA-AEEA-γGlu-Lauroyl])SSYLEGEK([AEEA-AEEA-γGlu-Lauroyl])A[αMeK]EFIK([AEEA-AEEA-γGlu-Lauroyl])FVVEGG-NH2), for which the EC50 was 19.5 nM in test [1] (setting [4]); 19.5 nM in test [2] (setting [8]); 176 pM in test [3] (setting [5]); 110 pM in test [3] (setting [6]); 241 pM in test [3] (setting [7]).

As for `CC[C@H](C)[C@H](NC(=O)[C@](C)(Cc1ccccc1)NC(=O)[C@H](CCC(=O)O)NC(=O)[C@H](CCCCNC(=O)CCCCCNC(=O)CCCCCNC(=O)CCCCCNC(=O)CCCCCCCCCCCCCCCCC(=O)O)NC(=O)[C@H](C)NC(=O)[C@H](C)NC(=O)[C@H](CCC(=O)O)NC(=O)CNC(=O)[C@H](CCC(=O)O)NC(=O)[C@H](CC(C)C)NC(=O)[C@](C)(Cc1ccccc1)NC(=O)[C@H](CO)NC(=O)[C@](C)(CO)NC(=O)[C@@H](NC(=O)[C@H](CC(=O)O)NC(=O)[C@H](CO)NC(=O)[C@@H](NC(=O)[C@](C)(Cc1ccccc1)NC(=O)[C@H](CO)NC(=O)CNC(=O)[C@H](CCC(=O)O)NC(=O)C(C)(C)NC(=O)[C@@H](N)Cc1c[nH]cn1)[C@@H](C)O)C(C)C)C(=O)N[C@@H](C)C(=O)N[C@@](C)(Cc1ccccc1)C(=O)N[C@H](C(=O)N[C@H](C(=O)N[C@@](C)(CCCCN)C(=O)NCC(=O)NCC(N)=O)C(C)C)C(C)C` [compound 160], the EC50 in test [1] (setting [9]) was at least 26 nM; in test [1] (setting [10]) it was at least 26 nM; in test [2] (setting [11]) it was at least 26 nM; in test [2] (setting [12]), at least 26 nM; in test [3] (setting [13]) it was 390 pM; in test [3] (setting [14]), 320 pM. For the same compound, the EC50 in test [3] (setting [15]) was 351 pM.

Take `CCCCCCCCCCCCCCCC(=O)N[C@@H](CCC(=O)NCCCC[C@H](NC(=O)CNC(=O)CNC(=O)[C@H](CCCCN)NC(=O)[C@@H](NC(=O)[C@@H](NC(=O)[C@](C)(Cc1ccccc1)NC(=O)[C@H](C)NC(=O)[C@@H](NC(=O)[C@](C)(Cc1ccccc1)NC(=O)[C@H](CCC(=O)O)NC(=O)[C@H](CCCCN)NC(=O)[C@H](C)NC(=O)[C@H](C)NC(=O)[C@H](CCC(=O)O)NC(=O)CNC(=O)[C@H](CCC(=O)O)NC(=O)[C@H](CC(C)C)NC(=O)[C@](C)(Cc1ccccc1)NC(=O)[C@H](CO)NC(=O)[C@H](CO)NC(=O)[C@@H](NC(=O)[C@H](CC(=O)O)NC(=O)[C@H](CO)NC(=O)[C@@H](NC(=O)[C@](C)(Cc1ccccc1)NC(=O)[C@H](CO)NC(=O)CNC(=O)[C@H](CCC(=O)O)NC(=O)C(C)(C)NC(=O)[C@@H](N)Cc1c[nH]cn1)[C@@H](C)O)C(C)C)[C@@H](C)CC)C(C)C)C(C)C)C(N)=O)C(=O)O` [compound 39] (H-H[Aib]EGS[αMeF]TSDVSS[αMeF]LEGEAAKE[αMeF]IA[αMeF]VVKGGK([γGlu-Palmitoyl])-NH2; N-terminus assumed): the EC50 is at least 27 nM in test [1] (setting [9]); at least 27 nM in test [1] (setting [10]); at least 27 nM in test [2] (setting [11]); at least 27 nM in test [2] (setting [12]); 33 pM in test [3] (setting [13]); 33 pM in test [3] (setting [14]). Further, the EC50 in test [3] (setting [15]) was found to be 33 pM.
